Test [1] addresses Glucose-6-phosphate 1-dehydrogenase (Homo sapiens, UniProt P11413). In words: human G6PD enzyme inhibitors, dose response, selectivity assay for P. falciparum G6PD inhibitor project, biochemical, fluorescence (AID 504792). It is filed as functional.
Test [2] deals with T1, Voltage-gated N-type calcium channel alpha-1B subunit/Amyloid beta A4 precursor protein-binding family A member 1 (Homo sapiens, UniProt Q00975+Q02410). Format: protein assay.
Test [3] deals with T1, Voltage-gated N-type calcium channel alpha-1B subunit/Amyloid beta A4 precursor protein-binding family A member 1. Format: protein assay. This is another data set of the same source.
For test [4], the target named is T2, DNA dC->dU-editing enzyme APOBEC-3G (Homo sapiens, UniProt Q9HC16). In words: Dose Response confirmation of small molecule APOBEC3G DNA Deaminase Inhibitors via a fluorescence-based single-stranded DNA deaminase assay. [Related pubchem assays (depositor defined):AID493012, AID493028]. It is filed as functional.
T2 sequence (Q9HC16 whole entry): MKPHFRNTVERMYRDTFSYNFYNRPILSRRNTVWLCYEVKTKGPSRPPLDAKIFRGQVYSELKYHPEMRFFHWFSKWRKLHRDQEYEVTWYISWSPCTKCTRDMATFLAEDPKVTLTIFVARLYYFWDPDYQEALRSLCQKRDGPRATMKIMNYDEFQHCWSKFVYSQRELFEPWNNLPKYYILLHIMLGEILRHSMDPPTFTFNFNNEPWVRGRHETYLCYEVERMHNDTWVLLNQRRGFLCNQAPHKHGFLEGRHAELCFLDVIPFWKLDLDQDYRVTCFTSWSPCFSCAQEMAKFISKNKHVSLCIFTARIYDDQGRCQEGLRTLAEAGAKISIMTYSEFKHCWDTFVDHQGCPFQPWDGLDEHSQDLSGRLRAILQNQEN
Test [5] deals with T3, Melanin-concentrating hormone receptor 1 (Homo sapiens, UniProt Q99705). In words: Fluorescence-based counterscreen for antagonists of the G-protein coupled receptor 7 (GPR7): cell-based high throughput dose response assay to identify antagonists of the melanin-concentrating hormone receptor 1 (MCHR1). Format: functional. On the technique in general: The purpose of a counterscreen is to sort out artefacts and off-target activity.
T3 sequence (Q99705 whole entry): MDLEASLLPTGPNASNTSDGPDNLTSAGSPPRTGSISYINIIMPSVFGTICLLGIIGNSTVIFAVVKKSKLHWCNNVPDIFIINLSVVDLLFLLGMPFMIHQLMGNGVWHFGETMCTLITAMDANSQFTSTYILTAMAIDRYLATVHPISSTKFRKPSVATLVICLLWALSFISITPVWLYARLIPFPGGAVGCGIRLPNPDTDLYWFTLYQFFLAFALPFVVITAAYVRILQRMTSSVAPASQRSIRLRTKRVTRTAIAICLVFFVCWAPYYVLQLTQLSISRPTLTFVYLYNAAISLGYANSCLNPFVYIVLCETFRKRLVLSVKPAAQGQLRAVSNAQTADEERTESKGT

Test [6] addresses T4, Neuropeptides B/W receptor type 1 (Homo sapiens, UniProt P48145).
T4 sequence (P48145 whole entry): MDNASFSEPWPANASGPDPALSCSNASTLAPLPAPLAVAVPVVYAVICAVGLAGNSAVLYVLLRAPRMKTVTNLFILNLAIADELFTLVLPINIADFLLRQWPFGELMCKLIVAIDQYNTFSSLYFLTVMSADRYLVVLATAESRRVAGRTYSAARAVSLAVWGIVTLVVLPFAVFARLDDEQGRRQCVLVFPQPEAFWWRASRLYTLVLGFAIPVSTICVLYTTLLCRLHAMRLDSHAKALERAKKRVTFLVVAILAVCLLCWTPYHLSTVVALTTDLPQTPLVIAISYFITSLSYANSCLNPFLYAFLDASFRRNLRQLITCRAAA
In words: Fluorescence-based dose response cell-based high throughput screening assay to identify antagonists of the G-protein coupled receptor 7 (GPR7). [Related pubchem assays: 1952 (Screening assay (GPR7 antagonists).), 1880 (Summary AID.)]. It is filed as functional.

The target in test [7] is T5, Corticotropin-releasing factor receptor 2/Corticotropin-releasing factor-binding protein (Homo sapiens, UniProt P24387+Q13324).
T5 sequence (Q13324 whole entry): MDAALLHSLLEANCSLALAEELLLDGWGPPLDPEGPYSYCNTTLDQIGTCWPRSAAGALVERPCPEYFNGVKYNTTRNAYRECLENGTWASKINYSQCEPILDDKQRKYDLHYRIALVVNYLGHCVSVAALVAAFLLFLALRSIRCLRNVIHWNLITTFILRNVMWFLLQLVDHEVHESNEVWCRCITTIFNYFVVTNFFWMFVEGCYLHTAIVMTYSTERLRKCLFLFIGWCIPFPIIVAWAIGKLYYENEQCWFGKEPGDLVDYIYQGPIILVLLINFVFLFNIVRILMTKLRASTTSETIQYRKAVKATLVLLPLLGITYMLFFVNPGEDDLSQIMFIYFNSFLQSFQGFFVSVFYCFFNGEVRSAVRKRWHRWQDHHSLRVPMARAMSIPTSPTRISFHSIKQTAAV
T5 sequence (P24387 whole entry): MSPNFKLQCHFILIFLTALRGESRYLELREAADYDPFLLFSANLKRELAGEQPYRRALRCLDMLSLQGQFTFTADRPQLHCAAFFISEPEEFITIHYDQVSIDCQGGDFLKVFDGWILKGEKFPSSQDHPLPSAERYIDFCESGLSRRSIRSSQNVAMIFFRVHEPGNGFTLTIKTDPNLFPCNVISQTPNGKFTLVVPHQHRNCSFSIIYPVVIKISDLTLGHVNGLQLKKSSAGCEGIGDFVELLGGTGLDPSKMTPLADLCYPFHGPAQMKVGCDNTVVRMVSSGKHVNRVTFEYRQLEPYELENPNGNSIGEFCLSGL
In words: activators of CRF receptor 2 with binding protein – uHTS hits, confirmation (AID 602473). It is filed as functional. As to conditions: read-out: EC50_Mean.

The target in test [8] is T3, Melanin-concentrating hormone receptor 1. In words: Late-stage fluorescence-based counterscreen for antagonists of the G-protein coupled receptor 7 (GPR7): cell-based dose response assay to identify antagonists of the melanin-concentrating hormone receptor 1 (MCHR1). [Related pubchem assays (depositor defined):AID1861, AID1880, AID1952, AID2148, AID2251, AID2257, AID485339]. Format: functional.

Test [9] deals with T4, Neuropeptides B/W receptor type 1. Description: GPR7 antagonist potency, late-stage follow-up, cell-based, fluorescence, dose response (AID 463251). It is filed as functional.
Test [10] has as its target T6, Intestinal-type alkaline phosphatase (Mus musculus, UniProt P24822). In words: PubChem AID 488875. It is filed as functional.
Test [11] deals with T7, Alkaline phosphatase, tissue-nonspecific isozyme (Homo sapiens, UniProt P05186).
T7 sequence (P05186 whole entry): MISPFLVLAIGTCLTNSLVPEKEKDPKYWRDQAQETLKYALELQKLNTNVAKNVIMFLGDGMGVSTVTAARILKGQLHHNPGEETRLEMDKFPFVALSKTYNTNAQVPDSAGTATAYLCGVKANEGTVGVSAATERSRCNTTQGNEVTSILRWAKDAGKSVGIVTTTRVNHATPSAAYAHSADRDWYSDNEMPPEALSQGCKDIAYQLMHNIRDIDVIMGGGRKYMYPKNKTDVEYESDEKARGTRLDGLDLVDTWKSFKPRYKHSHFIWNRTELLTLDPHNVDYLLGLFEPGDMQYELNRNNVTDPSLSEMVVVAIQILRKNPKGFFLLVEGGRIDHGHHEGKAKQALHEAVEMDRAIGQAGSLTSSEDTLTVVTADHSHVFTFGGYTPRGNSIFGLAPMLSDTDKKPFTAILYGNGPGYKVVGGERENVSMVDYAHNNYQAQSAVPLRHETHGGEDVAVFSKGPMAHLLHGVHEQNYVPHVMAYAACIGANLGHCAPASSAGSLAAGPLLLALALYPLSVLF
In words: TNAP enzyme activators, dose response, selectivity assay for human IAP activator project, biochemical, TNAP isozyme, human IAP uHTS hits (AID 488886).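 Further: potency of compounds raising TNAP activity as a selectivity check on IAP activators.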 It is filed as functional.

In test [12] the target is T8, Intestinal-type alkaline phosphatase (Homo sapiens, UniProt P09923). In words: human intestinal alkaline phosphatase activators, dose response, biochemical, luminescence, uHTS hits (AID 463120). It is filed as functional.
T8 sequence (P09923 whole entry): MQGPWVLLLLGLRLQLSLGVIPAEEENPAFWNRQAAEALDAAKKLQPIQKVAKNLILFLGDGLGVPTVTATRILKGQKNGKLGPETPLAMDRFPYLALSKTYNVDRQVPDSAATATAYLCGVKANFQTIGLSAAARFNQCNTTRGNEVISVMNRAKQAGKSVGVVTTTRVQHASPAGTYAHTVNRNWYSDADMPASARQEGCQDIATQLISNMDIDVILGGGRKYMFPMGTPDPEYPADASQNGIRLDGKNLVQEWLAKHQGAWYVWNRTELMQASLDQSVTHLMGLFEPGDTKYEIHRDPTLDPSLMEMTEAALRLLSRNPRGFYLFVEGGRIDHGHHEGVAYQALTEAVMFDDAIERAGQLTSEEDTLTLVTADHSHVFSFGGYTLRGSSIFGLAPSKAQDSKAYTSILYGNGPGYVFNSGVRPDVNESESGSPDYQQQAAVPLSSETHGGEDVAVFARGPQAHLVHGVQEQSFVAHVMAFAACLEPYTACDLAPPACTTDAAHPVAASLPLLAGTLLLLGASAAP
The target of test [13] is T8, Intestinal-type alkaline phosphatase. Description: human IAP activators, dose response, biochemical, luminescent, uHTS hits, set 2 (AID 488817).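 Further: potency of activators that raise enzyme activity.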 It is filed as functional.
Test [14] addresses T6, Intestinal-type alkaline phosphatase. In words: PubChem AID 488874. It is filed as functional.
For test [15], the target named is T1, Voltage-gated N-type calcium channel alpha-1B subunit/Amyloid beta A4 precursor protein-binding family A member 1. In words: disruptors of Mint-PDZ/N-type channel peptide interaction – biochemical, HTRF, SAR follow-up (AID 2489). Format: functional.
The next test addresses SUMO E1/E2 (Homo sapiens, UniProt P63279+Q9UBE0+Q9UBT2). Description: SAR analysis of SUMOylation using HTRF in an in-Vitro dose response assay. [Related pubchem assays (depositor defined):AID2006, AID2011, AID2018, AID2069, AID2658]. It is filed as functional. (Time-resolved FRET reads energy transfer from a long-lived donor to a nearby acceptor.)
The target in test [16] is T1, Voltage-gated N-type calcium channel alpha-1B subunit/Amyloid beta A4 precursor protein-binding family A member 1. In words: disruptors of Mint-PDZ/N-type channel peptide interaction – biochemical, HTRF, set 2, SAR follow-up (AID 434980). Format: functional.
Test [17] in a line: Counterscreen for activators of the function of SWI/SNF related, matrix associated, actin dependent regulator of chromatin, subfamily a, member 2 (SMARCA2, BRM): Luminescence-based cell-based high throughput dose response assay to identify non-selective compounds using the VP16 reporter assay. It is filed as functional.
The target of test [18] is T8, Intestinal-type alkaline phosphatase. In words: Dose Response confirmation of uHTS hits from a small molecule inhibitors of human intestinal alkaline phosphatase via a luminescent assay. [Related pubchem assays (depositor defined):AID2544, AID2574]. Format: functional.
The target in test [19] is T9, Fructose-bisphosphate aldolase (Mycobacterium tuberculosis, UniProt P9WQA3).
T9 sequence (P9WQA3 whole entry): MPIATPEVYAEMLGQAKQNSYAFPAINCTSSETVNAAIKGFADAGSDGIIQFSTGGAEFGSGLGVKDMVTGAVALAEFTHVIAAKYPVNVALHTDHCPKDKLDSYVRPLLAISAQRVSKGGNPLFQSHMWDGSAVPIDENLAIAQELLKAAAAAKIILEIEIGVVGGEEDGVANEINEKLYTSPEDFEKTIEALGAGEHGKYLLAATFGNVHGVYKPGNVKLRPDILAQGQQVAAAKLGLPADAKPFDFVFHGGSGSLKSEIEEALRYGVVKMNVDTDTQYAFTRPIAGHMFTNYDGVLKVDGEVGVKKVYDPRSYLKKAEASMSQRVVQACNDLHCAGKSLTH
In words: Fluorescence-based biochemical high throughput dose response assay for inhibitors of the fructose-bisphosphate aldolase (FBA) of M. tuberculosis. It is filed as functional.

Test [20] addresses SWI/SNF-related matrix-associated actin-dependent regulator of chromatin subfamily A member 2 (Homo sapiens, UniProt P51531). In words: Luminescence-based cell-based high throughput dose response assay to identify activators of the function of SWI/SNF related, matrix associated, actin dependent regulator of chromatin, subfamily a, member 2 (SMARCA2, BRM). It is filed as functional.

Test [21] addresses Phosphoethanolamine/phosphocholine phosphatase (Homo sapiens, UniProt Q8TCT1). In words: SAR assay for compounds that inhibit PHOSPHO1. [Related pubchem assays (depositor defined):AID1545, AID1565, AID1574].
The test system of test [22] is HEK293. Description: NOD1 signaling inhibitors, primary screen, cell-based, luminescence, uHTS (AID 1578). Format: functional. Conditions: Homo sapiens.
A short description of test [23]: Luminescence Cell-Based Dose Response HTS to Identify Inhibitors of 5'UTR Stem-Loop Driven Prion Protein mRNA Translation in H4 Neuroglioblastoma Cells. [Related pubchem assays: 1827 (Project Summary), 1813 (Primary HTS)]. Format: functional.
Test [24] concerns HEK293. Description: cells. Format: functional, cell-based. Conditions: Homo sapiens.
Test [25] has as its system HEK293. In words: cells. Conditions: Homo sapiens. It is filed as functional, cell-based. This is another data set of the same source.
The nature of test [26]: inhibitors of firefly luciferase expression or activity, dose response, H4 neuroglioma cells, luminescence (AID 1990). It is filed as functional, cell-based.
Test [27] can be described thus: inhibitors of SNCA 5'UTR-driven reporter translation, confirmation, H4 neuroglioma cells, luminescence (AID 1988). Format: functional, cell-based.
Test [28] relates to HEK293. Description: NOD2 signaling inhibitors in MDP-stimulated cells, cell-based, uHTS, luminescence (AID 2001). Format: functional. Conditions: Homo sapiens.
Test [29] deals with T2, DNA dC->dU-editing enzyme APOBEC-3G. Format: functional.
Test [30] addresses DNA dC->dU-editing enzyme APOBEC-3A (Homo sapiens, UniProt P31941). Description: Dose Response confirmation of small molecule APOBEC3A DNA Deaminase Inhibitors via a fluorescence-based single-stranded DNA deaminase assay. [Related pubchem assays (depositor defined):AID493011, AID493024]. It is filed as functional.
Test [31] relates to HEK293. In words: cells. Format: functional, cell-based. Conditions: Homo sapiens. The source holds these as a separate data set.
Test [32] deals with Nucleotide-binding oligomerization domain-containing protein 2 (Homo sapiens, UniProt Q9HC29). Description: NOD2 signaling inhibitors, cell-based, luminescence, uHTS, HEK293 (AID 1566). Format: functional.

The source made the active and inactive calls.

T1 sequence (Q00975 whole entry): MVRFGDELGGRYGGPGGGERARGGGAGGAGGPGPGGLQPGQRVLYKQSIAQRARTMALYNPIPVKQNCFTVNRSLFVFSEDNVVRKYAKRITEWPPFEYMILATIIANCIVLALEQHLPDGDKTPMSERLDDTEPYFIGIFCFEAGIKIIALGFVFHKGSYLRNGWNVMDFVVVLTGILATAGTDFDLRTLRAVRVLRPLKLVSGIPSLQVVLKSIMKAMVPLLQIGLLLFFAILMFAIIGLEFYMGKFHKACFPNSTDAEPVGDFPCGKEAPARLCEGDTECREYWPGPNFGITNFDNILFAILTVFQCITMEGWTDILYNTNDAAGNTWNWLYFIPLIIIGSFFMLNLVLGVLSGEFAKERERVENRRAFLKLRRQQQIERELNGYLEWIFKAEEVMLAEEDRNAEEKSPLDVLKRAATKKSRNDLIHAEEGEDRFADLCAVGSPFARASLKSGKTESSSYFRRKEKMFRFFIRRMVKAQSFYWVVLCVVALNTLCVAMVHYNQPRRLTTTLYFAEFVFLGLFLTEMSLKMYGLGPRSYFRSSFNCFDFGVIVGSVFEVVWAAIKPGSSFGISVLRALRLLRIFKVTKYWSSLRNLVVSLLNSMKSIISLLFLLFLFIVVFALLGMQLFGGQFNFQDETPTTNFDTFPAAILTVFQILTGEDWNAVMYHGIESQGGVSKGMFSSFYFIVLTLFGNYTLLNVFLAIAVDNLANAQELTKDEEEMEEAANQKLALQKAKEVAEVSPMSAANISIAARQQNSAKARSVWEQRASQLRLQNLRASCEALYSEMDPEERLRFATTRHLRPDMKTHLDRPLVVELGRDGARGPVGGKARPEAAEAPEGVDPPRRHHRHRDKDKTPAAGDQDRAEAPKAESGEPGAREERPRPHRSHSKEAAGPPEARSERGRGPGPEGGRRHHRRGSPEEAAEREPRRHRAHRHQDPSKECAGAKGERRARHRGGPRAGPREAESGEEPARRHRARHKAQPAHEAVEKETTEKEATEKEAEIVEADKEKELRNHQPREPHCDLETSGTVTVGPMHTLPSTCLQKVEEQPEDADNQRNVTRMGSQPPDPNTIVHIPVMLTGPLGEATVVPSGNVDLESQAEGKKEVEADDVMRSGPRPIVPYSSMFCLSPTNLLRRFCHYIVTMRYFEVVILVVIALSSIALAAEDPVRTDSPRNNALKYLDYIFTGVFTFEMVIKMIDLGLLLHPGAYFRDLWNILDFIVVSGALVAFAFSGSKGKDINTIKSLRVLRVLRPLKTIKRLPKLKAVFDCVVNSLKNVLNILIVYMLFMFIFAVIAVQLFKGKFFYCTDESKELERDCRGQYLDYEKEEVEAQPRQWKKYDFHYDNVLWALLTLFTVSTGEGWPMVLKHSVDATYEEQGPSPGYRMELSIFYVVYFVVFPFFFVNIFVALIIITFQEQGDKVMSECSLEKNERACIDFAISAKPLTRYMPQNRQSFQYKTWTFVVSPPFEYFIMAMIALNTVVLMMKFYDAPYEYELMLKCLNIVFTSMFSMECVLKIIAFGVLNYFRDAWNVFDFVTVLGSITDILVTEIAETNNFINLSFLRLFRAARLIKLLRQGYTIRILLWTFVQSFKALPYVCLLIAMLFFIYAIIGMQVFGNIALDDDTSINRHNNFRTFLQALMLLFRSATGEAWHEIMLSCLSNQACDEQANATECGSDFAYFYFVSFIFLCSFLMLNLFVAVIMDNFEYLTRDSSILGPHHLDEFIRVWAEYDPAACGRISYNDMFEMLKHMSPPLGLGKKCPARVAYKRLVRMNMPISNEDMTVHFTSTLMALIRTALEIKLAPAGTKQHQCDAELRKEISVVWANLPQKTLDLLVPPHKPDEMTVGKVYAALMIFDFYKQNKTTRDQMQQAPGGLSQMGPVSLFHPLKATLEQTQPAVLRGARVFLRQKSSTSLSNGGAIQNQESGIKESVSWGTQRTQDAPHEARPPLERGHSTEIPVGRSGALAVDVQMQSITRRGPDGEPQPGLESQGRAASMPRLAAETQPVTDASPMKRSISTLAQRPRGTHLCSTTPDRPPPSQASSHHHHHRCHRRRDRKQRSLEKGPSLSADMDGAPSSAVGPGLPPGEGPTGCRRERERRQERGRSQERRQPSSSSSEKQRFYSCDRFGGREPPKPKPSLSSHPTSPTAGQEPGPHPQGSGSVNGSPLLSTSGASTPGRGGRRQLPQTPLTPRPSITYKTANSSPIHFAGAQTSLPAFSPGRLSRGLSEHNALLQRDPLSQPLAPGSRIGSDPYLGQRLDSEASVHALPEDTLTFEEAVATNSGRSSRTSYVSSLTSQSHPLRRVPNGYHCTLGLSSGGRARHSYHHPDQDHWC
T1 sequence (Q02410 whole entry): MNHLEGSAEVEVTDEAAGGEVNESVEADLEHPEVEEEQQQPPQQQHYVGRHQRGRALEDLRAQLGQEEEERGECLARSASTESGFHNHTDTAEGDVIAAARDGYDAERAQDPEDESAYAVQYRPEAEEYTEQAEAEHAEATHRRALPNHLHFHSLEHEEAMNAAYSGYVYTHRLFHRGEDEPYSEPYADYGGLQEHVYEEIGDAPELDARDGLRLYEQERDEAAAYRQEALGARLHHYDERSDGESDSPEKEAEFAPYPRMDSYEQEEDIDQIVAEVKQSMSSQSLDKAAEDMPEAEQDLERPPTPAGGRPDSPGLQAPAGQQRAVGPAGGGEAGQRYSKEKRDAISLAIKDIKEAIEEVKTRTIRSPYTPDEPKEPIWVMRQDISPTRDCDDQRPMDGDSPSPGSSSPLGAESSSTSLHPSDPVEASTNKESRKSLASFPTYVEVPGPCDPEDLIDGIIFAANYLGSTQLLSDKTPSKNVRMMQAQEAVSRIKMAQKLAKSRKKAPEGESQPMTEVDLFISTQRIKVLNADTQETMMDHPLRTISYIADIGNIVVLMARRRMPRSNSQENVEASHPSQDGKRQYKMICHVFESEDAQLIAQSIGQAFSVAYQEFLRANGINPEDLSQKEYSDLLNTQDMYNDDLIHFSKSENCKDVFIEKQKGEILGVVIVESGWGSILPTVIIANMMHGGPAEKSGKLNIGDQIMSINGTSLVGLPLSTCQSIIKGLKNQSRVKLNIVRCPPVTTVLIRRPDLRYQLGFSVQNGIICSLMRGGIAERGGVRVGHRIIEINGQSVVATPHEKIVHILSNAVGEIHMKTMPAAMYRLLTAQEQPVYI
T6 sequence (P24822 whole entry): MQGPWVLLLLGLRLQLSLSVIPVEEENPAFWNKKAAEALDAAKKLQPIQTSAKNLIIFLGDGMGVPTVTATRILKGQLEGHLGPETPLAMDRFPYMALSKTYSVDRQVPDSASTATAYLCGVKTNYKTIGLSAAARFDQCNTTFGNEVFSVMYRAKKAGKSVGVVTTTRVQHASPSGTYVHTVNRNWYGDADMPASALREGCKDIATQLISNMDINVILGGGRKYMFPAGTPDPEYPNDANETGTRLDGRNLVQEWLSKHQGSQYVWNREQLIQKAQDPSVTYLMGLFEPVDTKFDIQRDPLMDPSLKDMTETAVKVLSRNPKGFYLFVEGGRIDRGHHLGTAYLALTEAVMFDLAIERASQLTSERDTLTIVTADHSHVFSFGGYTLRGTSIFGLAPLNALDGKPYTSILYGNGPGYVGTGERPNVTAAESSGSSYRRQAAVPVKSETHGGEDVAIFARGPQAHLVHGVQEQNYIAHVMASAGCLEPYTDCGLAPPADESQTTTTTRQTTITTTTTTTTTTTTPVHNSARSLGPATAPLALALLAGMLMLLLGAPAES

`Cc1cc(C)c2c(=O)n(CC(=O)NC3CCCC3)sc2n1`: the IC50 (usually the concentration that inhibits the measured activity by half) in test [1] is > 80 µM (inactive); in test [2], 7.6 µM (active); in [3], 42.7 µM (active); in [4], > 100 µM (inactive).

Consider `COc1ccccc1-n1c(SCC(N)=O)nnc1-c1ccc(S(=O)(=O)N2CCCCC2)cc1`, for which the 50% inhibitory concentration (IC50) was > 43.8 µM (not active) in [5], 5.36 µM (active) in test [6], > 20 µM (inactive) in test [8] and > 20 µM (inactive) in test [9]. Also, the EC50 in test [7] was 12.7 µM (active).

`Cc1cc(C(=O)NC2CC(C)(C)Cc3c2cnn3-c2ccccc2)[nH]n1` (stereo unspecified): the EC50 in [10] is 55.1 µM (active); in [11], 48.2 µM (active); in test [12] it was 70.7 µM (active); in [13], 45.5 µM (active).

Consider `Cc1nc2c3ccccc3nc(NNC(=O)CCC(=O)NCCN3CCN(c4ccccc4)CC3)n2n1`, for which the EC50 in [11] was 14.1 µM (active); in test [12] it was 8.73 µM (active); in [13], 13.7 µM (active). Besides, the IC50 in test [14] was 49.8 µM (active).

Turning to `COc1ccccc1CNC(=O)c1cc(-c2ccco2)nc2ccccc12`, the IC50 in test [15] was 24.7 µM (active); at SUMO E1/E2, 2.51 µM (active); in test [16], 22 µM (active).

For `Cc1cccn2c(=O)c3cc(C(=O)NC4CCCC4)c(=N)n(C4CCCCC4)c3nc12`, the EC50 in test [17] and in [20] was > 91.2 µM (inactive) each time. The IC50 was > 100 µM (inactive) in test [18] and 0.469 µM (active) in [19].

For `COc1ccc(-c2nc(N)s[n+]2-c2ccccc2)cc1`, the IC50 in [21] is 1.25 µM (inactive).

As for `CCCCCCCn1ccc(=N)cc1`, the EC50 with HEK293 [22] was 6.12 µM (active); in [23] it was > 120 µM (not active); in test [26] it was 13 µM (active); in [27], 14.8 µM (active); in [32], 8.15 µM (active). Moreover, the IC50 is 18.1 µM (active) in the test on HEK293 [24]; > 20 µM (inactive) with HEK293 [25]; 6.34 µM (active) in the test with HEK293 [28]; 2.51 µM (active) in [29]; 1.83 µM (active) in test [30]; 5.72 µM (active) in the test on HEK293 [31].
